Assay results taken from US12479847B2 (DANA-FARBER CANCER INSTITUTE, INC., priority 2019, dated 2025).

Tests used:
Assay in all cases: KINOMEscan (ScanMAX) kinase profiling
Type in all cases: binding
[1] = molecular target: T1, panel of 468 kinases (Homo sapiens, UniProt O95747); conditions: OSR1; 1 μM; read-out: % control
T1 construct: purchased KINOMEscan (ScanMAX) service

[2] = molecular target: T2, panel of 468 kinases (Homo sapiens, UniProt P00519, M351T); conditions: ABL1(M351T)-phosphorylated; 1 μM; read-out: % control
T2 construct: purchased KINOMEscan (ScanMAX) service

[3] = molecular target: T3, panel of 468 kinases (Homo sapiens, UniProt P07949, V804L); conditions: RET(V804L); 1 μM; read-out: % control
T3 construct: purchased KINOMEscan (ScanMAX) service
T3 sequence (P07949 29-1114 V804L): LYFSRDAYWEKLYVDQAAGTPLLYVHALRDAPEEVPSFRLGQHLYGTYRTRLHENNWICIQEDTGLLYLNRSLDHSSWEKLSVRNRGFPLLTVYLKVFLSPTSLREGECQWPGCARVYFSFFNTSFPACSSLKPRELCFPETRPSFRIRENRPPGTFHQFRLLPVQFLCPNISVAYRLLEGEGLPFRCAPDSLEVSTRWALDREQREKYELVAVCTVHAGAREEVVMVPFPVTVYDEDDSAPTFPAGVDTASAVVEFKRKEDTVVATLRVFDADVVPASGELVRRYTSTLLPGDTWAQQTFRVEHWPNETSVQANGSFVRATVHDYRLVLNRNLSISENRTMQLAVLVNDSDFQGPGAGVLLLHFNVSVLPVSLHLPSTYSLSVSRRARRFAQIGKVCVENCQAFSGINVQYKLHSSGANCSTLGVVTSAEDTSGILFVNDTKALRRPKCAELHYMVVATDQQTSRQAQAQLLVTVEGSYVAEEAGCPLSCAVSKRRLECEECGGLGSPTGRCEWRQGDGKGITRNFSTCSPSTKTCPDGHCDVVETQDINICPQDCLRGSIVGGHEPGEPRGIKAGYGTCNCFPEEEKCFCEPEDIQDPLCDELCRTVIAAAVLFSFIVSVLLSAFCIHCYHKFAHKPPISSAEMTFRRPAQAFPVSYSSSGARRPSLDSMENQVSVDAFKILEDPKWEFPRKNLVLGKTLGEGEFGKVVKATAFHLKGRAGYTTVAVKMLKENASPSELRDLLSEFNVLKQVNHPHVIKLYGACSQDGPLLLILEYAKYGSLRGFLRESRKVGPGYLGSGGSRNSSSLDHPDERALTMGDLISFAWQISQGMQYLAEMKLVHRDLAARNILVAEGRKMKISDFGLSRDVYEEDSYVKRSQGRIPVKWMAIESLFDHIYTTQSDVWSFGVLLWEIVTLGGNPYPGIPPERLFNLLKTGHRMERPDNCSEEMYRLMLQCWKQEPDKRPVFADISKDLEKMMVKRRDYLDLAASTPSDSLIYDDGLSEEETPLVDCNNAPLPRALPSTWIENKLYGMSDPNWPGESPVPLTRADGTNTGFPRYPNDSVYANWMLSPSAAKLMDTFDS

[4] = molecular target: T4, panel of 468 kinases (Homo sapiens, UniProt P42336, E545A); conditions: PIK3CA(E545A); 1 μM; read-out: % control
T4 construct: purchased KINOMEscan (ScanMAX) service
T4 sequence (P42336 whole entry E545A): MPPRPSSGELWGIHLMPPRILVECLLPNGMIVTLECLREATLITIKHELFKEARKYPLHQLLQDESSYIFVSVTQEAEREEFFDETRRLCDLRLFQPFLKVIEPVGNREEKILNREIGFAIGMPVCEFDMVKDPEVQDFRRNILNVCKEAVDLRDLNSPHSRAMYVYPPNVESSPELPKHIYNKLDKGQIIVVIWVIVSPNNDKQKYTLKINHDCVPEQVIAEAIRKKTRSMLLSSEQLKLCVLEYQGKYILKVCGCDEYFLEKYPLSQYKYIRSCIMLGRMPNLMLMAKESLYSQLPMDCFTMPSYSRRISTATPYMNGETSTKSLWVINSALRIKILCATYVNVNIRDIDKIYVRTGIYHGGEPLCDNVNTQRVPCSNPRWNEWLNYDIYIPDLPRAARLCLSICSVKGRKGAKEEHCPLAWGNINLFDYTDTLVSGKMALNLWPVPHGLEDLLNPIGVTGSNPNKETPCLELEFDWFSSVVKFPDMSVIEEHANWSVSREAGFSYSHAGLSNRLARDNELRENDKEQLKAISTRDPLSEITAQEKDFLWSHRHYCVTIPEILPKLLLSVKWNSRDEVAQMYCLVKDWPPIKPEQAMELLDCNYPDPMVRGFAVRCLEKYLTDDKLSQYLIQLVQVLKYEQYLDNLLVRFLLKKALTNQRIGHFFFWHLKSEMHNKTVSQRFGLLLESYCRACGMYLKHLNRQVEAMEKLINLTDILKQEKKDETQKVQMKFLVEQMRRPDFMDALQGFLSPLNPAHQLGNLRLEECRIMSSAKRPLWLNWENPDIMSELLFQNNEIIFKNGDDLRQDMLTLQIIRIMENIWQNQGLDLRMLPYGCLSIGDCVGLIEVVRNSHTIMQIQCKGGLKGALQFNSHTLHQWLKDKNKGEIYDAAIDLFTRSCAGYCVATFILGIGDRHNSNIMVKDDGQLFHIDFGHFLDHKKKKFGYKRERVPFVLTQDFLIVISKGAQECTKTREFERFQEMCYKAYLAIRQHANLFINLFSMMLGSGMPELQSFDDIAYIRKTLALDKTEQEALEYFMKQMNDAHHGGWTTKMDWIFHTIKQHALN

[5] = molecular target: T5, panel of 468 kinases (Homo sapiens, UniProt P54762); conditions: EPHB1; 1 μM; read-out: % control
T5 construct: purchased KINOMEscan (ScanMAX) service
T5 sequence (P54762 18-984): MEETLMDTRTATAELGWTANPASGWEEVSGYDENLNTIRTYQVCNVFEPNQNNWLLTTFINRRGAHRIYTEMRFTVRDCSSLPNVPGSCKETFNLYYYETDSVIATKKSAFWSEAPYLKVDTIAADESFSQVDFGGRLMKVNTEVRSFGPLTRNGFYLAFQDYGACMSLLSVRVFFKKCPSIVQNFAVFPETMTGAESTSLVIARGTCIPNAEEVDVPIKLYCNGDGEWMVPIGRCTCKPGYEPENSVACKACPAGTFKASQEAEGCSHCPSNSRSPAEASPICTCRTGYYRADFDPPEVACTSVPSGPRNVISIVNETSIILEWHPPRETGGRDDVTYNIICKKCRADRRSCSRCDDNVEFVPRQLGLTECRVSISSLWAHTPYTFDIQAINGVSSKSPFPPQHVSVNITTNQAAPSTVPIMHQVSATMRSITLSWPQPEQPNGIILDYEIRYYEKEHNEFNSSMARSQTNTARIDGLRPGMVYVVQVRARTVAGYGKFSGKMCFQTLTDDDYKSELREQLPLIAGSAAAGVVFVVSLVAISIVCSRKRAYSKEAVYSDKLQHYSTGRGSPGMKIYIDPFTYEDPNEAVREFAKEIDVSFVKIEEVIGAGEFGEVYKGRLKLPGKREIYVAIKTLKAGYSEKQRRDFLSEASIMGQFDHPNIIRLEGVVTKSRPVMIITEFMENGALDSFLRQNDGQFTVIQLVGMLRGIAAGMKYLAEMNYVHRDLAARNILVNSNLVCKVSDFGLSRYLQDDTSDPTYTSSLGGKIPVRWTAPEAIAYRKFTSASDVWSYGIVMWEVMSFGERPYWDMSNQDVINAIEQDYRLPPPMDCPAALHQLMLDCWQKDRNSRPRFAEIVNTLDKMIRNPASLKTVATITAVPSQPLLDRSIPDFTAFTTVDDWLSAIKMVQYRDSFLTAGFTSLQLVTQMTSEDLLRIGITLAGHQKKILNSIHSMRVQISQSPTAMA

[6] = molecular target: T6, panel of 468 kinases (Homo sapiens, UniProt Q96RR4); conditions: CAMKK2; 1 μM; read-out: % control
T6 construct: purchased KINOMEscan (ScanMAX) service
T6 sequence (Q96RR4 whole entry): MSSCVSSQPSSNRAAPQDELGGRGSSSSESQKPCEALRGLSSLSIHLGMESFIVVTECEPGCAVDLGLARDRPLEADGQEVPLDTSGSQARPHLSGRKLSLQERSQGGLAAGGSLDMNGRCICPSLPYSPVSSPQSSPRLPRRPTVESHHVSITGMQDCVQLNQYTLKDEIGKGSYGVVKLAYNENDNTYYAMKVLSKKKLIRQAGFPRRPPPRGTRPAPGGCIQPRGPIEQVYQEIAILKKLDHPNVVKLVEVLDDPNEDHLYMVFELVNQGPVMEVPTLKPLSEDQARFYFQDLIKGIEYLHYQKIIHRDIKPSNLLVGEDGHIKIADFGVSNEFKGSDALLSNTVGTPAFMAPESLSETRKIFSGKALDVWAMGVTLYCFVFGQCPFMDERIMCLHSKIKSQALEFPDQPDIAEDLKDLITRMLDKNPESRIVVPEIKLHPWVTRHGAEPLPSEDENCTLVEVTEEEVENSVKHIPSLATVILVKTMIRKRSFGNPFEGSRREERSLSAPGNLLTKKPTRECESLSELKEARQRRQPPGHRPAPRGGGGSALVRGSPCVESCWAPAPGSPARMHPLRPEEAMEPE

[7] = molecular target: T7, panel of 468 kinases (Homo sapiens, UniProt Q96SB4); conditions: SRPK1; 1 μM; read-out: % control
T7 construct: purchased KINOMEscan (ScanMAX) service
T7 sequence (Q96SB4 whole entry): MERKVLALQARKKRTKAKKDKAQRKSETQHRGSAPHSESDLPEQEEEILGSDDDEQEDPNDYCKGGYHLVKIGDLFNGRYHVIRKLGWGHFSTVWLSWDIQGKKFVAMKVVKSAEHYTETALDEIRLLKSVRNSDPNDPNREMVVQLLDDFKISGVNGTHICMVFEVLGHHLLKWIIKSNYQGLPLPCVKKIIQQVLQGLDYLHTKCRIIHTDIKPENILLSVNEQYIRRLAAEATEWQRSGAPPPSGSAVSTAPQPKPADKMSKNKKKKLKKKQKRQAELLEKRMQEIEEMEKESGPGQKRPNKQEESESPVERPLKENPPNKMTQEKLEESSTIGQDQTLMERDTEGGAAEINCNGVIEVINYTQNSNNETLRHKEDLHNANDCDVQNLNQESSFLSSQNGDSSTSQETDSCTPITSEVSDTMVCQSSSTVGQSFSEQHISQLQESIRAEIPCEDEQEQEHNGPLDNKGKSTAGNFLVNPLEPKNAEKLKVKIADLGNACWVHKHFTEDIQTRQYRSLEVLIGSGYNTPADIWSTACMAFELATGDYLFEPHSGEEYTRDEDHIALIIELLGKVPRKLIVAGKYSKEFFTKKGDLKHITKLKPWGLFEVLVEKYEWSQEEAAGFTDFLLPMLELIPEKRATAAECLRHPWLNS

[8] = molecular target: T8, panel of 468 kinases (Homo sapiens, UniProt Q9UQ88); conditions: CDC2L2; 1 μM; read-out: % control
T8 construct: purchased KINOMEscan (ScanMAX) service
T8 sequence (Q9UQ88 1-783): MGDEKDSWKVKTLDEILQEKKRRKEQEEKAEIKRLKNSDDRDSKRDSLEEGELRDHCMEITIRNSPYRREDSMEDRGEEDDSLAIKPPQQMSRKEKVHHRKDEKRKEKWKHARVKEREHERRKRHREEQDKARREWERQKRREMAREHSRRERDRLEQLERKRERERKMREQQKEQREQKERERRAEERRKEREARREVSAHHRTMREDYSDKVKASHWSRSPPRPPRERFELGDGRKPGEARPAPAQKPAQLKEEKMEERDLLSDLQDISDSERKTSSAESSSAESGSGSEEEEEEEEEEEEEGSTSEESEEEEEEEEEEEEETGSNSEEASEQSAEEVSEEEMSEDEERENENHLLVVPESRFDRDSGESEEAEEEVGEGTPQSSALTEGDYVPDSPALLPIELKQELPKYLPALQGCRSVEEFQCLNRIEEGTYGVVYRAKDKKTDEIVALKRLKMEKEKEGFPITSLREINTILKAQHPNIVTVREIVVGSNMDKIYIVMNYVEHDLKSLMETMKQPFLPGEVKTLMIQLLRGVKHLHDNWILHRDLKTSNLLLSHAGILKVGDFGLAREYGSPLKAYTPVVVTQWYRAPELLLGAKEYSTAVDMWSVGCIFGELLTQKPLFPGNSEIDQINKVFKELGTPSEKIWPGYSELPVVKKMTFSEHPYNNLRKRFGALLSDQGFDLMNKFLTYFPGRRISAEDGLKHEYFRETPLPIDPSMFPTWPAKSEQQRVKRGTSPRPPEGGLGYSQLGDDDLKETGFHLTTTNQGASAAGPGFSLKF

T1 sequence (O95747 whole entry): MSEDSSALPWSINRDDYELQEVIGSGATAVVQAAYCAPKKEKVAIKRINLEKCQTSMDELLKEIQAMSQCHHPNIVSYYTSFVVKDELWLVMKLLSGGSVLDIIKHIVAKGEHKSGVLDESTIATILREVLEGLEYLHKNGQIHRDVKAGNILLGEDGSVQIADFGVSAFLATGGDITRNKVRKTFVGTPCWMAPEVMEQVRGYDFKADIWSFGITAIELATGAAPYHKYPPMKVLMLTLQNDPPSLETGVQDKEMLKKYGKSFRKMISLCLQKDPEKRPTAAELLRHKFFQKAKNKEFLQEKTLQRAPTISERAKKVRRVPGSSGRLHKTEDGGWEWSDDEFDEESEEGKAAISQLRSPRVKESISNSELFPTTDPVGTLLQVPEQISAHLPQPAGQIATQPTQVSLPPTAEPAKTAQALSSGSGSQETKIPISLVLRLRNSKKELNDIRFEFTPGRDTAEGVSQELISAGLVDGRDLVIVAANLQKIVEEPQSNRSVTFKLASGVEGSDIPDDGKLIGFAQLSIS

With `CNc1nc(Nc2ccc(S(=O)(=O)N3CCC(N4CCOCC4)CC3)cc2OC)nc2[nH]cc(Cl)c12` [Compound 12, 5-chloro-N2-(2-methoxy-4-((4-morpholinopiperidin-1-yl)sulfonyl)phenyl)-N4-methyl-7H-pyrrolo[2,3-d]pyrimidine-2,4-diamine] the remaining binding at 1 µM [1] was 31%, the remaining binding at 1 µM [2] was 64% and the remaining binding at 1 µM [3] was 89%. For the same molecule, the remaining binding at 1 µM [4] was 100%, the remaining binding at 1 µM [5] was 88% and the remaining binding at 1 µM [6] was 68%. For the same molecule, the remaining binding at 1 µM [7] was 96% and the remaining binding at 1 µM [8] was 100%.
For `CNc1nc(Nc2ccc(C(=O)N3CCC(N4CCOCC4)CC3)c3c2OCO3)nc2[nH]cc(Cl)c12` [Compound 75, (7-((5-chloro-4-(methylamino)-7H-pyrrolo[2,3-d]pyrimidin-2-yl)amino)benzo[d][1,3]dioxol-4-yl)(4-morpholinopiperidin-1-yl)methanone], the remaining binding at 1 µM [1] was 24%, the remaining binding at 1 µM [2] was 59% and the remaining binding at 1 µM [3] was 42%. It also gave a remaining binding at 1 µM [4] of 100%, a remaining binding at 1 µM [5] of 100% and a remaining binding at 1 µM [6] of 42%. It also gave a remaining binding at 1 µM [7] of 53% and a remaining binding at 1 µM [8] of 100%.
`CNc1nc(Nc2ccc(P3(=O)CCN(C4CCOCC4)CC3)cc2OC)nc2[nH]cc(Cl)c12` [Compound 77, 4-(4-((5-chloro-4-(methylamino)-7H-pyrrolo[2,3-d]pyrimidin-2-yl)amino)-3-methoxyphenyl)-1-(tetrahydro-2H-pyran-4-yl)-1,4-azaphosphinane 4-oxide] showed a remaining binding at 1 µM [1] of 10%, a remaining binding at 1 µM [2] of 70% and a remaining binding at 1 µM [3] of 100%. It also gave a remaining binding at 1 µM [4] of 100%, a remaining binding at 1 µM [5] of 100% and a remaining binding at 1 µM [6] of 25%. It also gave a remaining binding at 1 µM [7] of 96% and a remaining binding at 1 µM [8] of 100%.
